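Grown in 96-well plates, cells were treated for 48 hours with each compound at five concentrations. Insufficient inhibition: endpoint recorded as highest concentration tested. TGI: total growth inhibition.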 A value given as a limit tells only on which side of the number the result lay.

What all share (test): NCI anticancer screen, dose series, 48 h
For experiment [1], the system named is 786-0 renal.
The subject of experiment [2] is SN12C renal.
Experiment [3] has as its system KM12 colon.
The test system of experiment [4] is SK-OV-3 ovarian.
Experiment [5] has as its system MDA-MB-231 breast.
The subject of experiment [6] is MDA-N.
Experiment [7] relates to OVCAR-4 ovarian.
Experiment [8] relates to OVCAR-5 ovarian.
The subject of experiment [9] is HOP-92 NSCLC.
The test system of experiment [10] is SNB-75 CNS.
Experiment [11] deals with HCT-116 colon.
Experiment [12] relates to BT-549 breast.
Experiment [13] has as its system HCT-15 colon.
Experiment [14] deals with RXF 393 renal.
Experiment [15] relates to HS 578T breast.
For experiment [16], the system named is LOX IMVI melanoma.
Experiment [17] has as its system SK-MEL-28 melanoma.
Experiment [18] relates to COLO 205 colon.
For experiment [19], the system named is DU-145 prostate.
In experiment [20] the test system is SNB-19 CNS.

Take `COC(=O)C(/C(=N/N)C(=O)Nc1cc(Cl)c(Cl)cc1Cl)c1nc2ccc(Cl)cc2[nH]c1=O` (stereo not given): the TGI in [1], in experiment [2], in experiment [3], in experiment [4], in [5] and in [6] was greater than 100 µM each time. The TGI in [7], in experiment [8], in [9], in [10], in [11] and in experiment [12] was greater than 100 µM each time. Also, the TGI in experiment [13], in experiment [14], in [15], in [16] and in experiment [17] was greater than 100 µM each time.

As for `C=CCNC(=O)/C(Cc1cc(Br)c(OC)c(Br)c1O)=N\O`, the TGI in experiment [1] is 7.28 µM; in experiment [18] it was 26 µM; in [3], 19.8 µM; in [5], 32.6 µM; in experiment [6], 1.07 µM; in experiment [7] it was 84.6 µM. For the same molecule, the TGI came to 34.4 µM in experiment [8]; 24.1 µM in experiment [9]; 12.7 µM in experiment [11]; 18.3 µM in experiment [12]; 21.7 µM in experiment [13]; 25.1 µM in experiment [19]. Also, the TGI was 4.23 µM in [15], 55 µM in experiment [16], 31 µM in [17] and 58.9 µM in experiment [20].

Turning to `C[C@H]1C(OCCOC2O[C@@H]3O[C@@]4(C)CC[C@H]5[C@H](C)CCC([C@H]2C)[C@@]35O4)O[C@@H]2O[C@@]3(C)CC[C@H]4[C@H](C)CCC1[C@@]24O3` (stereo not given in full), the TGI is greater than 100 µM in experiment [1]; 37.7 µM in experiment [18]; 52.6 µM in experiment [2]; greater than 100 µM in experiment [3]; greater than 100 µM in experiment [4]; 75.1 µM in [5]. For the same molecule, the TGI was greater than 100 µM in experiment [6]; greater than 100 µM in experiment [7]; greater than 100 µM in [8]; greater than 100 µM in experiment [9]; 81.7 µM in experiment [10]; 78.6 µM in experiment [11]. The TGI in experiment [12] was greater than 100 µM; in [13], greater than 100 µM; in experiment [19] it was 74.3 µM; in [16] it was 57.5 µM; in experiment [17] it was greater than 100 µM; in experiment [20], greater than 100 µM.

`CCOc1ccc(N/C(=C(/C(Cl)=C(/Cl)NCCO)[N+](=O)[O-])n2nnc3ccccc32)cc1`: the TGI is 81.7 µM in experiment [1]; 29.7 µM in [18]; 49.1 µM in experiment [2]; greater than 100 µM in experiment [3]; greater than 100 µM in experiment [4]; 63.8 µM in experiment [5]. In addition, the TGI was greater than 100 µM in experiment [6]; greater than 100 µM in experiment [7]; greater than 100 µM in [8]; greater than 100 µM in experiment [10]; greater than 100 µM in experiment [11]; 38.6 µM in [12]. The TGI in experiment [13] was 43.3 µM; in [19], 36 µM; in experiment [14], 31.7 µM; in [15], 38.8 µM; in experiment [17] it was 37.7 µM; in [20], greater than 100 µM.

In the case of `Cc1cc(S(=O)(=O)Nc2nc(N)nc(N3CCOCC3)n2)c(SCC(=O)O)cc1Cl`, the TGI in experiment [1], in experiment [18], in [2], in experiment [3], in experiment [4] and in experiment [6] was greater than 10 µM in each case. In addition, the TGI in experiment [7], in experiment [8], in experiment [9], in experiment [10], in [11] and in experiment [12] was greater than 10 µM in each case. Moreover, the TGI in experiment [13], in [19], in experiment [14], in [15], in [16] and in experiment [17] was greater than 10 µM throughout. Besides, the TGI in experiment [20] was greater than 10 µM.

With `CC(=O)O[C@H]1C(=O)[C@@]2(C)[C@H]([C@H](OC(=O)c3ccc([N+](=O)[O-])cc3)[C@]3(O)C[C@H](OC(=O)[C@H](O)[C@@H](NC(=O)c4ccccc4)c4ccccc4)C(C)=C1C3(C)C)[C@]1(OC(C)=O)CO[C@@H]1C[C@@H]2O`, the TGI in [1], in experiment [18], in [2], in [3], in [4] and in experiment [5] was greater than 25 µM throughout. The TGI in experiment [6], in experiment [7], in experiment [8], in experiment [9], in [10] and in experiment [11] was greater than 25 µM throughout. Moreover, the TGI in [12], in experiment [13], in experiment [19], in [14], in experiment [15] and in experiment [17] was greater than 25 µM in each case. In experiment [20], this molecule had a TGI greater than 25 µM.

Take `COc1cc2c(cc1OC)C1C(O)C(OC)C=C3CC[N+](C)(C2)C31` (stereo not given): the TGI in [1], in [18], in [2], in experiment [3], in [4] and in experiment [5] was greater than 100 µM each time. In addition, the TGI in [6], in [7], in [8], in [9], in experiment [10] and in experiment [11] was greater than 100 µM in each case. Besides, the TGI in [12], in experiment [13], in [19], in [14], in experiment [15] and in experiment [17] was greater than 100 µM in each case. In experiment [20], this molecule yielded a TGI greater than 100 µM.

As for `COc1cccc(-c2cccc(SC)n2)n1`, the TGI is 88.3 µM in experiment [1]; 40.2 µM in [18]; greater than 100 µM in experiment [2]; greater than 100 µM in experiment [3]; greater than 100 µM in [4]; greater than 100 µM in [5]. For the same molecule, the TGI in experiment [6] is greater than 100 µM; in experiment [7] it was greater than 100 µM; in experiment [8], greater than 100 µM; in experiment [9], 67.4 µM; in experiment [10], greater than 100 µM; in experiment [11], greater than 100 µM. The TGI in [12] is greater than 100 µM; in experiment [13] it was greater than 100 µM; in experiment [19], greater than 100 µM; in experiment [14] it was 63 µM; in experiment [16] it was greater than 100 µM; in experiment [17], greater than 100 µM. Moreover, the TGI in experiment [20] is greater than 100 µM.

For the origin of these results see PubChem BioAssay (NCI).
